Measurements reported in patent publication US20260109707A1, “HETEROBIFUNCTIONAL COMPOUNDS AND METHODS OF TREATING DISEASE” (Halda Therapeutics OpCo. Inc., priority 2022, published 2026).

Key:
[1] = test system: T-Rex 293 cell line SC3 cells having increased expression of androgen receptor protein due to exposure to doxycycline; experiment: Cellular growth inhibition assay, T-Rex 293 SC3 cells with doxycycline (CellTiter-Glo, 72 hours); type: cell-based; conditions: 72 h, T-Rex 293 SC3 cells with increased androgen receptor expression due to doxycycline (10 ng/mL)
In short: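 Growth inhibition is measured in an inducible AR-expressing T-Rex 293 clone, SC3, cultured with or without 10 ng/mL doxycycline in hormone-depleted medium. Test compounds are applied for 72 hours. GI50 values derive from CellTiter-Glo 2.0 signal fitted by four-parameter regression.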

T47D cells = experiment: Cellular growth inhibition assay for T47D cells (CellTiter-Glo, 72 hours); type: cell-based, human; conditions: Homo sapiens, T47D, 72 h, 72 hours treatment
In short: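 Cells are plated at 3000/well and allowed 24 h before treatment. Test compound in medium containing 0.5% DMSO is then added, with DMSO-only wells as negative control, and plates are incubated 72 h at 37 °C. ATP luminescence (CellTiter-Glo 2.0) is then fitted to four parameters to derive GI50.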

Row | GI50 (T47D cells) | SMILES | GI50 [1]
1 | < 500 nM | CCNC(=O)C[C@@H]1N=C(c2ccc(OCCOC3CCN(c4ccc(C(=O)N[C@H]5CC[C@H](Oc6ccc(C#N)c(Cl)c6)CC5)nn4)CC3)cc2)c2c(sc(C)c2C)-n2c(C)nnc21 [I-8] | < 500 nM
2 | 500 to 1500 nM | CCNC(=O)C[C@@H]1N=C(c2ccc(CC3CCN(c4ccc(C(=O)N[C@H]5CC[C@H](Oc6ccc(C#N)c(Cl)c6)CC5)nn4)CC3)cc2)c2c(sc(C)c2C)-n2c(C)nnc21 [I-20] | < 500 nM
3 | – | CCNC(=O)C[C@@H]1N=C(c2ccc(N3CCC(OC4CCN(c5ccc(C(=O)N[C@H]6CC[C@H](Oc7ccc(C#N)c(Cl)c7)CC6)nn5)CC4)CC3)cc2)c2c(sc(C)c2C)-n2c(C)nnc21 [I-44] | < 500 nM
4 | 1500 to 3000 nM | Cc1sc2c(c1C)C(c1ccc(Cl)cc1)=N[C@@H](CC(=O)NCCOCCOCCOC1CCN(c3ccc(C(=O)N[C@H]4CC[C@H](Oc5ccc(C#N)c(Cl)c5)CC4)nn3)CC1)c1nnc(C)n1-2 [I-2, N-[4-(3-chloro-4-cyano-phenoxy)cyclohexyl]-6-[4-[2-[2-[2-[[2-[(9S)-7-(4-chlorophenyl)-4,5,13-trimethyl-3-thia-1,8,11,12-tetrazatricyclo[8.3.0.0^2,6]trideca-2(6),4,7,10,12-pentaen-9-yl]acetyl]amino]ethoxy]ethoxy]ethoxy]-1-piperidyl]pyridazine-3-carboxamide] | < 500 nM
5 | < 500 nM | CCNC(=O)C[C@@H]1N=C(c2ccc(OCCOCCOC3CCN(c4ccc(C(=O)N[C@H]5CC[C@H](Oc6ccc(C#N)c(Cl)c6)CC5)nn4)CC3)cc2)c2c(sc(C)c2C)-n2c(C)nnc21 [I-10] | < 500 nM
6 | 500 to 1500 nM | CCNC(=O)C[C@@H]1N=C(c2ccc(OCCCN(C)c3ccc(C(=O)N[C@H]4CC[C@H](Oc5ccc(C#N)c(Cl)c5)CC4)nn3)cc2)c2c(sc(C)c2C)-n2c(C)nnc21 [I-48] | < 500 nM
7 | < 500 nM | Cc1sc2c(c1C)C(c1ccc(Cl)cc1)=N[C@@H](CC(=O)NCCOC1CCN(c3ccc(C(=O)N[C@H]4CC[C@H](Oc5ccc(C#N)c(Cl)c5)CC4)nn3)CC1)c1nnc(C)n1-2 [I-1, N-[4-(3-chloro-4-cyano-phenoxy)cyclohexyl]-6-[4-[2-[[2-[(9S)-7-(4-chlorophenyl)-4,5,13-trimethyl-3-thia-1,8,11,12-tetrazatricyclo[8.3.0.0^2,6]trideca-2(6),4,7,10,12-pentaen-9-yl]acetyl]amino]ethoxy]-1-piperidyl]pyridazine-3-carboxamide] | 500 to 1500 nM
8 | < 500 nM | CCNC(=O)C[C@@H]1N=C(c2ccc(N3CC4(C3)CN(c3ccc(C(=O)N[C@H]5CC[C@H](Oc6ccc(C#N)c(Cl)c6)CC5)nn3)C4)cc2)c2c(sc(C)c2C)-n2c(C)nnc21 [I-24] | 500 to 1500 nM
9 | < 500 nM | CCNC(=O)C[C@@H]1N=C(c2ccc(CCCOC3CCN(c4ccc(C(=O)N[C@H]5CC[C@H](Oc6ccc(C#N)c(Cl)c6)CC5)nn4)CC3)cc2)c2c(sc(C)c2C)-n2c(C)nnc21 [I-17] | < 500 nM
10 | < 500 nM | CCNC(=O)C[C@@H]1N=C(c2ccc(OCC3CN(c4ccc(C(=O)N[C@H]5CC[C@H](Oc6ccc(C#N)c(Cl)c6)CC5)nn4)C3)cc2)c2c(sc(C)c2C)-n2c(C)nnc21 [I-29] | < 500 nM
